Patent US11903388B2 (priority 2018, dated 2024)

Test system: Aspergillus parasiticus B62
Format: cell-based

Compound	growth
Cc1cc(OC(=O)c2c(C)cc(O)cc2O)cc(O)c1C(=O)O [Lecanoric acid]	inhibitory effects
COC(=O)c1c(C)cc(O)cc1O [methyl-orsellinate]	inhibitory effects
